{"source": "patent EP4491649A1", "about": "“DUAL CURABLE OLIGOMERS” (ARKEMA FRANCE, priority 2023, dated 2025)", "type_in_all_cases": "physicochemical", "key": {"[1]": {"experiment": "Mechanical performance of cured compositions (tensile strength, modulus, elongation at break, ASTM D638)", "protocol": "These mechanical properties were measured in accordance with ASTM D638.\nThe mechanical performance tests were performed on compositions comprising the oligomer to be tested mixed with SR506, photoinitiators and/or curing agents, as detailed in Tables 4, 5 and 6 below.\nTests UV + Thermal cure: 80 wt.% of oligomers were mixed with 20 wt. % of SR506. To this mixture were added 3 wt.% of TPO and 1 wt.% of 2E4MZ (based on the total weight of oligomers + SR506).\nTests UV cure: 80 wt.% of oligomers were mixed with 20 wt. % of SR506. To this mixture was added 3 wt.% of TPO (based on the total weight of oligomers + SR506).\nTests Thermal cure: 80 wt.% of oligomers were mixed with 20 wt.% of SR506. To this mixture was added 1 wt.% of 2E4MZ (based on the total weight of oligomers + SR506)."}, "[2]": {"experiment": "Refractive index (RX-7000 α, ATAGO)", "protocol": "The refractive index of the oligomers was measured using a RX-7000 α from AT AGO at a temperature of 25°C."}, "[3]": {"experiment": "Viscosity of the oligomers (Brookfield RVDV-II+ Pro, #28 spindle)", "details": "20 rpm", "protocol": "The viscosity of the oligomers was measured using a Brookfield RVDV-II+ Pro instrument at a temperature of 60°C using a #28 spindle and a rotational speed of 20 rpm. Moreover, the viscosity of the oligomers was measured with a Brookfield RVDV-II+ Pro instrument at a temperature of 25°C using a #28 spindle and a rotational speed of 10 rpm."}, "[4]": {"experiment": "Epoxy Equivalent Weight (EEW), ASTM D1763-1981", "protocol": "The EEW was measured in accordance with ASTM D1763-1981."}, "[5]": {"experiment": "Storage stability (thermal test, viscosity before/after 48 hours at 65°C, alone or mixed with ADH)", "protocol": "The storage stability tests were performed by placing the oligomer to be tested, alone or mixed with ADH (as a curing agent), at 65°C for 48 hours (thermal test), and measuring their viscosity (cps@60C)."}, "[6]": {"details": "Thermal Cure, 80 wt.% oligomer + 20 wt.% SR506, then 1 wt.% 2E4MZ"}, "[7]": {"details": "UV + Thermal Cure, 80 wt.% oligomer + 20 wt.% SR506, then 3 wt.% TPO + 1 wt.% 2E4MZ"}, "[8]": {"details": "UV Cure, 80 wt.% oligomer + 20 wt.% SR506, then 3 wt.% TPO"}}, "data": [{"smiles": "C=CC(=O)OCC(O)COc1ccc(C(C)(C)c2ccc(OCC3CO3)cc2)cc1", "note": "(stereo not drawn) [Reference]", "values": [{"measurement": "Elongation at break (%)", "setting": "[1]; [6]", "result": 2.095, "unit": "%"}, {"measurement": "Tensile modulus", "setting": "[1]; [6]", "result": "2,037"}, {"measurement": "Tensile strength (Mpa)", "setting": "[1]; [6]", "result": 43.33, "unit": "Mpa"}, {"measurement": "Elongation at break (%)", "setting": "[1]; [7]", "result": 1.86, "unit": "%"}, {"measurement": "Tensile modulus", "setting": "[1]; [7]", "result": 4027}, {"measurement": "Tensile strength (Mpa)", "setting": "[1]; [7]", "result": 73.39, "unit": "Mpa"}, {"measurement": "Elongation at break (%)", "setting": "[1]; [8]", "result": 2.32, "unit": "%"}, {"measurement": "Tensile modulus", "setting": "[1]; [8]", "result": 2722}, {"measurement": "Tensile strength (Mpa)", "setting": "[1]; [8]", "result": 62.9, "unit": "Mpa"}, {"measurement": "Refractive Index (25°C)", "setting": "[2]", "result": 1.5633}, {"measurement": "Viscosity (60°C)", "setting": "[3]", "result": 2390, "unit": "mPa.s"}, {"measurement": "Viscosity (60°C)", "setting": "[3]; listed as Comparative oligomer", "result": "around 2390 mPa.s"}, {"measurement": "EEW", "setting": "[4]; Table 2", "result": 1020, "unit": "g/ep"}, {"measurement": "EEW", "setting": "[4]; synthesis text", "result": 1020, "unit": "g/eq"}, {"measurement": "viscosity change after storage", "setting": "[5]; 65°C for 48h, not mixed with ADH", "result": "no significant viscosity change"}, {"measurement": "Viscosity (cps@60C) After storage 48h, 65°C", "setting": "[5]; after storage 48h at 65°C, measured at 60C", "result": "2,450 cps"}, {"measurement": "Viscosity (cps@60C) Initial", "setting": "[5]; initial, measured at 60C", "result": "2,390 cps"}, {"measurement": "state of composition after storage", "setting": "[5]; mixed with 20 wt.% ADH, 48h at 65°C", "result": "becomes gelled"}]}]}
